# Test results published in ChEMBL document CHEMBL6127088, “Novel 2-aminothiazole analogues both as polymyxin E synergist and antimicrobial agent against multidrug-resistant Gram-positive bacteria” (2024).
# The source made the active and inactive calls. The calls are words filed in the database; no cut-off is given here.
# Assays:
# Acinetobacter baumannii [1] = test: Antimicrobial activity against Acinetobacter baumannii ATCC 19606 incubated for 18 hrs by broth microdilution method; type: functional
# Acinetobacter baumannii [2] = test: Synergistic antimicrobial activity against Acinetobacter baumannii ATCC 19606 assessed as fractional inhibitory concentration index in presence of polymyxin E incubated for 18 to 20 hrs by chequerboard assay; type: functional; conditions: time 18-20 hrs
# Enterococcus faecalis [3] = test: Antimicrobial activity against vancomycin-resistant Enterococcus faecalis ATCC 51299 assessed as minimum inhibitory concentration incubated for 18 hrs by broth microdilution method; type: functional
# Acinetobacter baumannii [4] = test: Synergistic antibacterial activity against Acinetobacter baumannii ATCC 19606 infected in female Balb/c mouse model assessed as increase in animal survival at 64 mg/kg, iv administered every 12 hrs in presence of 0.5 mg/kg polymyxin-E and measured for 7 days; type: functional, organism-based
# Staphylococcus aureus = test: Antimicrobial activity against methicillin/ofloxacin-resistant Staphylococcus aureus ATCC 43300 assessed as minimum inhibitory concentration incubated for 18 hrs by broth microdilution method; type: functional
# Acinetobacter baumannii [5] = test: Synergistic antibacterial activity against Acinetobacter baumannii ATCC 19606 assessed as fold change in polymyxin-E MIC at 2 microg/ml incubated for 18 hrs by broth microdilution method relative to polymyxin-E alone; type: functional; conditions: dose 2 µg/ml
# Acinetobacter baumannii [6] = test: Antibacterial activity against Acinetobacter baumannii ATCC 19606 infected in female Balb/c mouse model assessed as increase in animal survival at 64 mg/kg, iv administered every 12 hrs and measured for 7 days; type: functional, organism-based
# Acinetobacter baumannii [7] = test: Synergistic antibacterial activity against Acinetobacter baumannii ATCC 19606 assessed as fold change in polymyxin-E MIC at 16 microg/ml incubated for 18 hrs by broth microdilution method relative to polymyxin-E alone; type: functional; conditions: dose 16 µg/ml
# Bacillus subtilis [8] = test: Antimicrobial activity against Bacillus subtilis ATCC 20678 incubated for 18 hrs by broth microdilution method; type: functional
# [9] = test system: Mycolicibacterium smegmatis; test: Antibacterial activity against Mycobacterium smegmatis ARC 700044 assessed as inhibition of bacterial growth incubated for 18 hrs by broth microdilution method; type: functional
# [10] = test system: Lactiplantibacillus plantarum; test: Antibacterial activity against Lactobacillus plantarum assessed as inhibition of bacterial growth incubated for 18 hrs by broth microdilution method; type: functional
# [11] = test system: Lacticaseibacillus rhamnosus; test: Antibacterial activity against Lactobacillus rhamnosus assessed as inhibition of bacterial growth incubated for 18 hrs by broth microdilution method; type: functional
# Listeria monocytogenes = test: Antibacterial activity against Listeria monocytogenes assessed as inhibition of bacterial growth incubated for 18 hrs by broth microdilution method; type: functional
# [12] = test system: Mycolicibacterium smegmatis; test: Antibacterial activity against Mycobacterium smegmatis MC 2155 assessed as inhibition of bacterial growth incubated for 18 hrs by broth microdilution method; type: functional
# Enterococcus faecalis [13] = test: Antibacterial activity against Enterococcus faecalis ATCC 51299 assessed as inhibition of bacterial growth incubated for 18 hrs by broth microdilution method; type: functional
# Bacillus subtilis [14] = test: Antibacterial activity against Bacillus subtilis 168 assessed as inhibition of bacterial growth incubated for 18 hrs by broth microdilution method; type: functional
# [15] = test system: Mycolicibacterium smegmatis; test: Antibacterial activity against Mycobacterium smegmatis ATCC 704 assessed as inhibition of bacterial growth incubated for 18 hrs by broth microdilution method; type: functional
# Bacillus subtilis [16] = test: Antibacterial activity against Bacillus subtilis ATCC 6633 assessed as inhibition of bacterial growth incubated for 18 hrs by broth microdilution method; type: functional
# Enterococcus faecalis [17] = test: Antibacterial activity against Enterococcus faecalis ATCC 29212 assessed as inhibition of bacterial growth incubated for 18 hrs by broth microdilution method; type: functional
# Bacillus subtilis [18] = test: Antibacterial activity against Bacillus subtilis CMCC(B) 63501 assessed as inhibition of bacterial growth incubated for 18 hrs by broth microdilution method; type: functional
Compound,MIC (Acinetobacter baumannii [1]) [µg/mL],fractional inhibitory concentration index (FICI) (Acinetobacter baumannii [2]),MIC (Enterococcus faecalis [3]) [µg/mL],MIC (Staphylococcus aureus) [µg/mL],MIC (Bacillus subtilis [8]) [µg/mL],also measured
Fc1ccc(-c2csc(Nc3ccc(C(F)(F)F)cc3)n2)c(F)c1,> 256,0.14,4,4,4,Activity (Acinetobacter baumannii [4]): inactive; fold change (FC) (Acinetobacter baumannii [5]): 8; Activity (Acinetobacter baumannii [6]): inactive; fold change (FC) (Acinetobacter baumannii [7]): 16
CN[C@H](CC(C)C)C(=O)N[C@H]1C(=O)N[C@@H](CC(N)=O)C(=O)N[C@H]2C(=O)N[C@H]3C(=O)N[C@H](C(=O)N[C@H](C(=O)O)c4cc(O)cc(O)c4-c4cc3ccc4O)[C@H](O)c3ccc(c(Cl)c3)Oc3cc2cc(c3O[C@@H]2O[C@H](CO)[C@@H](O)[C@H](O)[C@H]2O[C@H]2C[C@](C)(N)[C@H](O)[C@H](C)O2)Oc2ccc(cc2Cl)[C@H]1O [VANCOMYCIN],,,> 256,,1,MIC [9]: 2 µg/mL; MIC [10]: 0.5 µg/mL; MIC [11]: 1 µg/mL; MIC (Listeria monocytogenes): 2 µg/mL; MIC [12]: 2 µg/mL; MIC (Enterococcus faecalis [13]): 2 µg/mL; MIC (Bacillus subtilis [14]): 1 µg/mL; MIC [15]: 1 µg/mL; MIC (Bacillus subtilis [16]): 1 µg/mL; MIC (Enterococcus faecalis [17]): 2 µg/mL; MIC (Bacillus subtilis [18]): 2 µg/mL
Fc1cc(Nc2nc(-c3ccc(F)cc3F)cs2)cc(C(F)(F)F)c1,> 256,0.062,2,2,2,
Fc1ccc(-c2csc(Nc3cccnc3)n2)c(F)c1,128,1.031,256,128,256,
Fc1cc(Nc2nc(C3CCOCC3)cs2)cc(C(F)(F)F)c1,> 256,1.031,128,64,64,
CCOc1ccc(Nc2nc(-c3ccc(F)cc3F)cs2)cc1C(F)(F)F,> 256,0.094,4,8,4,
Fc1cc(Nc2nc(-c3cc4ccccc4o3)cs2)cc(C(F)(F)F)c1,> 256,0.187,2,1,2,
Fc1ccc(-c2csc(Nc3ccc(C(F)(F)F)cc3F)n2)c(F)c1,> 256,1.031,256,256,256,
Fc1cc(Nc2nc(-c3cccs3)cs2)cc(C(F)(F)F)c1,> 256,0.187,8,64,4,
CC(C)(C)c1csc(Nc2cc(F)cc(C(F)(F)F)c2)n1,> 256,0.156,8,8,4,
C/C(=N\Nc1cc(O)ncn1)c1csc(Nc2cc(F)cc(C(F)(F)F)c2)n1,> 256,0.562,256,128,256,
Fc1ccc(-c2csc(Nc3ccccc3C(F)(F)F)n2)c(F)c1,> 256,0.156,4,8,8,
Fc1cc(Nc2nc(-c3ccccn3)cs2)cc(C(F)(F)F)c1,64,0.078,64,1,0.5,
Fc1ccc(-c2csc(Nc3ccncc3)n2)c(F)c1,128,1.031,32,4,4,
Fc1ccc(-c2csc(Nc3cc(C(F)(F)F)cc(C(F)(F)F)c3)n2)c(F)c1,> 256,0.094,4,4,4,
C/C(=N\Nc1cnccn1)c1csc(Nc2cc(F)cc(C(F)(F)F)c2)n1,128,0.75,128,64,256,
Fc1cc(Nc2nc(-c3cccnc3)cs2)cc(C(F)(F)F)c1,128,1.031,256,64,256,
COc1cc(Nc2nc(-c3ccc(F)cc3F)cs2)cc(C(F)(F)F)c1,> 128,0.187,256,256,2,
Fc1ccc(-c2csc(Nc3cccc(C(F)(F)F)c3)n2)c(F)c1,> 256,0.094,2,4,2,
C/C(=N\Nc1ccc(C(=O)O)cn1)c1csc(Nc2cc(F)cc(C(F)(F)F)c2)n1,> 256,1.031,128,64,64,
Cc1cc(C(F)(F)F)ccc1Nc1nc(-c2ccc(F)cc2F)cs1,> 256,0.094,256,256,4,
CS(=O)(=O)c1ccc(Nc2nc(-c3ccc(F)cc3F)cs2)cc1,> 256,1.031,256,256,256,
C/C(=N\Nc1ccccc1)c1csc(Nc2cc(F)cc(C(F)(F)F)c2)n1,64,0.375,16,16,16,
